Reference: ChEMBL document CHEMBL5393444, “Sulfonamide derivatives as ctps1 inhibitors” (2022)

Target: T1, CTP synthase 1 (Homo sapiens, UniProt P17812)
T1 sequence (P17812 whole entry): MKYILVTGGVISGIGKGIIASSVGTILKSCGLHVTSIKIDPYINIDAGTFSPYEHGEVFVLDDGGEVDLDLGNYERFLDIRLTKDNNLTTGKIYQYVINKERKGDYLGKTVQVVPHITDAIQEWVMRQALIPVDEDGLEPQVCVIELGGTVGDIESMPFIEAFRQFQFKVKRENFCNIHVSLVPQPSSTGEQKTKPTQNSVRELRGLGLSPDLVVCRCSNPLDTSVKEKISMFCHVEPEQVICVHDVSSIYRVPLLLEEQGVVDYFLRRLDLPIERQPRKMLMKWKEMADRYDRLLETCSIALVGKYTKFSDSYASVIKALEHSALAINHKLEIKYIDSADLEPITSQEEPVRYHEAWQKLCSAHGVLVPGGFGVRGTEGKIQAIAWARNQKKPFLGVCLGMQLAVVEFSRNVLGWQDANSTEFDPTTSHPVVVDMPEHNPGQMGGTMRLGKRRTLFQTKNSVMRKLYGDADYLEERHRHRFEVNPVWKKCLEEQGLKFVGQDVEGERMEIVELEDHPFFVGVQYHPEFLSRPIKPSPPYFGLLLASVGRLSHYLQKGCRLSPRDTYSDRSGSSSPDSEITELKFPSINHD
Assay: Inhibition of C-terminal FLAG-His8-tagged full length human CTPS1 preincubated for 10 mins followed by substrate addition by ADP-Glo assay

Structure (SMILES)	IC50 [nM]
CCOc1cncc(-c2ccc(NC(=O)C(C)(C)c3ccnc(NS(=O)(=O)C4CC4)n3)cn2)n1	≤ 100
CCOc1cncc(-c2ccc(NC(=O)C(OC)c3cncc(NS(=O)(=O)C4CC4)n3)cc2)n1 (configuration not stated)	≤ 100
CCC(NC(=O)c1ccc(-c2cncc(OC(C)C)n2)cc1)c1ccnc(NS(=O)(=O)C2CC2)n1 (configuration not stated)	≤ 100
CCOc1cncc(-c2cnc(NC(=O)C(C)(C)c3ccnc(NS(=O)(=O)C4CC4)n3)c(F)c2)n1	≤ 100
CCOc1cncc(-c2ccc(NC(=O)C3(c4ccnc(NS(=O)(=O)C5CC5)n4)CC4(C3)OCCO4)nc2)n1	≤ 100
CCS(=O)(=O)Nc1nccc(C(C)(C)C(=O)Nc2ccc(-c3cncc(OC)n3)cc2F)n1	≤ 1000
Cc1ncc(-c2ccc(NC(=O)C(C)(C)c3ccnc(NS(C)(=O)=O)n3)c(C)c2)cn1	≥ 1000
CC(C)(C(=O)Nc1ccc(-c2cncc(OC3CC3)n2)cn1)c1ccnc(NS(=O)(=O)C2CC2)n1	≤ 100
CC(C)(C(=O)Nc1ccc(-c2cncc(C(F)(F)F)n2)cc1F)c1ccnc(NS(=O)(=O)C2CC2)n1	≤ 100
CCC(F)(C(=O)Nc1ccc(-c2cncc(Cl)c2)cn1)c1ccnc(NS(=O)(=O)C2CC2)n1 (configuration not stated)	≤ 100
CC(C)Oc1cncc(-c2ccc(NC(=O)C(C)(C)c3ccnc(NS(=O)(=O)C4CC4)n3)cc2)n1	≤ 100
CCC(C(=O)Nc1ccc(-c2cncc(Cl)c2)cn1)c1ccnc(NS(=O)(=O)C2CC2)n1 (configuration not stated)	≤ 100
COc1cncc(-c2ccc(NC(=O)Cc3ccnc(NS(=O)(=O)C4CC4)n3)cc2)n1	≤ 100
CCOc1cncc(-c2ccc(NC(=O)C3(c4ccnc(NS(=O)(=O)C5(C#N)CC5)n4)CCOCC3)nc2)n1	≤ 100
CCC(C(=O)Nc1ccc(-c2cncc(C3CC3)n2)cn1)c1ccnc(NS(=O)(=O)C2CC2)n1 (configuration not stated)	≤ 100
CCOc1cccc(-c2ccc(NC(=O)C(C)(C)c3ccnc(NS(=O)(=O)C4CC4)n3)cc2)c1	10000
CC(C)(C(=O)Nc1ccc(-c2cncc(OC(F)F)c2)cc1)c1ccnc(NS(=O)(=O)C2CC2)n1	≤ 100
O=C(Cc1ccnc(NS(=O)(=O)C2CC2)n1)Nc1ccc(-c2cncc(C(F)(F)F)n2)cc1F	≤ 100
CCOc1cncc(-c2ccc(NC(=O)C3(c4ccnc(NS(=O)(=O)C5CC5)n4)CCC(N(C)C)CC3)nc2)n1 (stereo in doubt; form 1) [listing 1 of 2 here]	≤ 100
CCOc1cncc(-c2ccc(C(=O)NC(CC)c3cncc(NS(=O)(=O)C4CC4)n3)c(F)c2)n1 (configuration not stated)	≤ 100
CCOc1cncc(-c2ccc(NC(=O)C(C)(C)c3ccnc(NS(=O)(=O)C4CC4)n3)c(Cl)c2)n1	≤ 100
CCOc1cncc(-c2ccc(NC(=O)C(F)(c3ccnc(NS(=O)(=O)C4CC4)n3)C(C)C)nc2)n1 (configuration not stated)	≤ 100
CCC(C(=O)Nc1ccc(-c2cncc(OC(C)C)n2)cc1)c1ccnc(NS(=O)(=O)C2CC2)n1 (configuration not stated)	≤ 100
CCOc1cncc(-c2cc(F)c(NC(=O)C(C)(C)c3ccnc(NS(=O)(=O)C4CC4)n3)c(F)c2)n1	≤ 100
COc1cncc(-c2ccc(NC(=O)Cc3cccc(NS(=O)(=O)C4CC4)n3)cc2)n1	≤ 100
CCOc1cncc(-c2ccc(NC(=O)C(CC)c3nccc(NS(=O)(=O)C4CC4)n3)nc2)n1 (configuration not stated)	≤ 100
CCOc1cncc(-c2ccc(NC(=O)C(CC)(CC)c3ccnc(NS(=O)(=O)C4CC4)n3)cc2)n1	≤ 100

Structure (SMILES)	IC50 [nM]
CCC(F)(C(=O)Nc1ccc(-c2cncc(C3CC3)n2)cn1)c1ccnc(NS(=O)(=O)C2CC2)n1 (configuration not stated)	≤ 100
CCC(C(=O)Nc1ccc(-c2cncc(C3CC3)n2)cc1F)c1ccnc(NS(=O)(=O)C2CC2)n1 (configuration not stated)	≤ 100
CCOc1cncc(-c2ccc(NC(=O)C(F)(CC)c3cncc(NS(=O)(=O)C4CC4)n3)nc2)n1 (stereo in doubt; form 1) [listing 1 of 2 here]	≤ 100
CCOc1cncc(-c2ccc(NC(=O)C(OC)c3cncc(NS(=O)(=O)C4CC4)n3)nc2)n1 (configuration not stated)	≤ 100
CCC(C(=O)Nc1ccc(-c2cncc(OC)n2)cc1)c1ccnc(NS(=O)(=O)C2CC2)n1 (configuration not stated)	≤ 100
CCOc1cncc(-c2ccc(NC(=O)C(C)(C)c3ccnc(NS(C)(=O)=O)n3)cc2)n1	≤ 100
CCOc1cncc(-c2ccc(NC(=O)C3(c4cccc(NS(=O)(=O)C5CC5)n4)CCOCC3)nc2)n1	≤ 100
O=C(Cc1ccnc(NS(=O)(=O)C2CC2)n1)Nc1ccc(-c2cncc(C(F)(F)F)n2)cc1	≤ 100
CC(C)(C(=O)Nc1ccc(-c2cncc(C(F)(F)F)n2)cc1)c1ccnc(NS(=O)(=O)C2CC2)n1	≤ 100
CCOc1cncc(-c2ccc(NC(=O)C(C)(C)c3ccnc(NS(=O)(=O)C4CC4)n3)c(OC)c2)n1	≤ 100
CCOc1cncc(-c2ccc(NC(=O)C(C)(C)c3ccnc(NS(=O)(=O)C4CC4)n3)c(OC(F)(F)F)c2)n1	≤ 100
CCOc1cncc(-c2ccc(NC(=O)C(C)(OC)c3cncc(NS(=O)(=O)C4CC4)n3)nc2)n1 (configuration not stated)	≤ 100
CCC(C(=O)Nc1ccc(-c2cncc(OCC(F)(F)F)n2)cn1)c1ccnc(NS(=O)(=O)C2CC2)n1 (configuration not stated)	≤ 100
CC(C)(C(=O)Nc1ccc(-c2cncc(C(F)(F)F)n2)cn1)c1ccnc(NS(=O)(=O)C2CC2)n1	≤ 100
CCC(C(=O)Nc1ccc(-c2cncc(OC(C)C)n2)cc1F)c1ccnc(NS(=O)(=O)C2CC2)n1 (configuration not stated)	≤ 100
CCOc1cncc(-c2cnc(NC(=O)C(CCOC)c3ccnc(NS(=O)(=O)C4CC4)n3)c(F)c2)n1 (configuration not stated)	≤ 100
CCC(C(=O)Nc1ccc(-c2cncc(C(F)(F)F)n2)cc1F)c1ccnc(NS(=O)(=O)C2CC2)n1 (configuration not stated)	≤ 100
CCOc1cncc(-c2ccc(NC(=O)C(c3ccnc(NS(=O)(=O)C4CC4)n3)C(C)C)nc2)n1 (configuration not stated)	≤ 100
CCOc1cncc(-c2ccc(NC(=O)C3(c4ccnc(NS(=O)(=O)C5CC5)n4)CCC(OC)CC3)nc2)n1 (configuration not stated)	≤ 100
CCOc1cncc(-c2ccc(NC(=O)C3(c4ccnc(NS(=O)(=O)C5CC5)n4)CCOCC3)cc2)n1	≤ 100
CCOc1cncc(-c2ccc(NC(=O)C(F)(CC)c3ccnc(NS(=O)(=O)C4CC4)n3)nc2)n1 (stereo in doubt; form 1)	≤ 100
COc1cncc(-c2ccc(NC(=O)C(C)(C)c3ccnc(NS(=O)(=O)C4CC4)n3)cc2)n1	≤ 100
O=C(Cc1ccnc(NS(=O)(=O)C2CC2)n1)Nc1ccc(-c2cncc(OCC(F)(F)F)n2)cc1	≤ 100
CCOc1cncc(-c2ccc(NC(=O)C(c3ccnc(NS(=O)(=O)C4CC4)n3)C(C)C)c(F)c2)n1 (configuration not stated)	≤ 100
CCOc1cncc(-c2ccc(NC(=O)C(F)(F)c3ccnc(NS(=O)(=O)C4CC4)n3)c(F)c2)n1	≤ 100
CCOc1cncc(-c2ccc(NC(=O)C3(c4ccnc(NS(=O)(=O)C5CC5)n4)CCC(O)CC3)nc2)n1 (stereo in doubt) [listing 1 of 2 here]	≤ 100

Organism: Homo sapiens
Assay: Selectivity ratio of IC50 for human CTPS2 to IC50 for human CTPS1 by RapidFire/MS analysis

Structure (SMILES)	Ratio IC50
CCOc1cncc(-c2ccc(NC(=O)C(F)(CC)c3cncc(NS(=O)(=O)C4CC4)n3)nc2)n1 (stereo in doubt; form 1) [listing 2 of 2 here]	30
CCC(C(=O)Nc1ccc(-c2cncc(Cl)c2)cc1)c1ccnc(NS(=O)(=O)C2CC2)n1 (configuration not stated)	2
CCC(C(=O)Nc1ncc(-c2cncc(OC)n2)cc1F)c1ccnc(NS(=O)(=O)C2CC2)n1 (configuration not stated)	2
CCOc1cncc(-c2ccc(NC(=O)C(C)(C)c3nc(NS(=O)(=O)C4CC4)ncc3C)cc2)n1	2
CCOc1cncc(-c2ccc(NC(=O)C(CC)c3cccc(NS(=O)(=O)C4CC4)n3)cc2)n1 (configuration not stated)	30
CCOc1cncc(-c2ccc(NC(=O)C(F)(CC)c3ccnc(NS(=O)(=O)C4CC4)n3)nc2)n1 (stereo in doubt; form 2)	2
CCOc1cncc(-c2ccc(NC(=O)C3(c4ccnc(NS(=O)(=O)C5CC5)n4)CCC(N(C)C)CC3)nc2)n1 (stereo in doubt; form 1) [listing 2 of 2 here]	> 60
CCOc1cncc(-c2ccc(NC(=O)C(C)(OC)c3cncc(NS(=O)(=O)C4CC4)n3)nc2)n1 (stereo in doubt; form 1)	> 60
CCOc1cncc(-c2ccc(NC(=O)C(C)(C)c3ccnc(NS(C)(=O)=O)n3)nc2)n1	30
CC(C)c1cncc(-c2ccc(NC(=O)C(C)(C)c3ccnc(NS(=O)(=O)C4CC4)n3)cc2)n1	30
CCOc1cncc(-c2ccc(NC(=O)C(F)(CC)c3ccnc(NS(=O)(=O)C4CC4)n3)nc2)n1 (stereo in doubt; form 3)	> 60
CCOc1cncc(-c2ccc(NC(=O)C3(c4ccnc(NS(=O)(=O)C5CC5)n4)CCC(N(C)C)CC3)nc2)n1 (stereo in doubt; form 2)	> 60
CCOc1cncc(-c2ccc(NC(=O)C(F)(CC)c3cncc(NS(=O)(=O)C4CC4)n3)nc2)n1 (stereo in doubt; form 3)	2
CCOc1cncc(-c2ccc(NC(=O)C(C)(C)c3nc(NS(=O)(=O)C4CC4)ncc3F)cc2)n1	30
CCOc1cncc(-c2ccc(NC(=O)C3(c4ccnc(NS(=O)(=O)C5CC5)n4)CCC(O)CC3)nc2)n1 (single isomer, unassigned)	2
CC(C)(C(=O)Nc1ccc(-c2cccnc2)cc1)c1ccnc(NS(=O)(=O)C2CC2)n1	2
CCOc1cncc(-c2ccc(NC(=O)C3(c4ccnc(NS(=O)(=O)C5CC5)n4)CCC(O)CC3)nc2)n1 (stereo in doubt) [listing 2 of 2 here]	> 60
CCOc1cncc(-c2ccc(NC(=O)C(F)(CC)c3cncc(NS(=O)(=O)C4CC4)n3)nc2)n1 (stereo in doubt; form 2)	> 60
CCOc1cncc(-c2ccc(NC(=O)C3(c4ccnc(NS(=O)(=O)N(C)C)n4)CCOCC3)nc2)n1	> 60
